Patent US11930812B2, “Coating materials for seeds and for particulate materials, including fertilizers” (ADVANCED BIOLOGICAL MARKETING, INC., priority 2017, dated 2024)

Key:
corn [1] = assay: Field trials of seed treatment, early-season flooding stress; format: in vivo; conditions: seed treatment 0.7 μl/seed
corn [2] = assay: Corn root development in PVC tubes in natural field soil after seed treatment; format: in vivo; conditions: seed treated with 0.7 μl; corn maturity, 3 months after application; PVC tubes about 4 M long; FIG. 1A
Protocol: In the roots produced in field soil in PVC pipes, adequate water was applied throughout the growing season. Conversely, in the field trial shown in FIG. 1, the plants were subject to severe drought, according to official weather service notices. In both cases, the growth of roots was much greater when produced from seeds treated with the chemical. […] Turning to FIG. 1 in detail, pictured are the development of corn roots from seeds not treated (left) or treated with 0.7 μl of 1-octen-3-ol (right) at the time of corn maturity (that is, 3 months after application of octenol). In FIG. 1A, plants were grown in PVC tubes about 4 M long in natural field soil, and the treated seeds produced roots that exceeded the control by about 50%. Length of roots are indicated in meters (M) by the scale at right.

squash = assay: Field-grown squash yield after seed treatment; format: in vivo; conditions: seed treatment about 0.7 μl; differences significant at P=0.01; FIG. 2C
Protocol: (§1) Turning to FIG. 2 in detail, pictured are long-term effects of 1-octen-3-ol (represented as the designation “Omega” on the chart) on yields of corn, yield increases in squash and control of powdery mildew on squash. Treatments in every case were seed treatments with about 0.7 μl of 1-octen-3-ol. […] FIGS. 2C and 2D show yield differences and disease resistance, as indicated by occurrence of powdery mildew from natural infection in field-grown squash following the same seed treatment protocol as above. The differences shown are significant at P=0.01. The yields are weights of fruit/ac. The powdery mildew disease rating is 0=no disease, 1=1 lesion/leaf, 2=2 lesions/leaf and 3=3 lesions per leaf.

corn [3] = assay: Corn field trials 2015, yields after seed treatment; format: in vivo; conditions: seed treatment about 0.7 μl, 2-3 months post-planting
Protocol: Turning to FIG. 2 in detail, pictured are long-term effects of 1-octen-3-ol (represented as the designation “Omega” on the chart) on yields of corn, yield increases in squash and control of powdery mildew on squash. Treatments in every case were seed treatments with about 0.7 μl of 1-octen-3-ol. […] FIGS. 2A and 2B show yields of corn in field trials, 2015.

powdery mildew = assay: Powdery mildew from natural infection in field-grown squash after seed treatment; format: in vivo; conditions: seed treatment about 0.7 μl, differences significant at P=0.01, FIG. 2D
Protocol: as §1

corn [4] = assay: Corn root length in field grown plants (back hoe trench) after seed treatment; format: in vivo; conditions: seed treatment 0.7 μl, severe drought, control root 30 cm, FIG. 1B
Description: In the roots produced in field soil in PVC pipes, adequate water was applied throughout the growing season. Conversely, in the field trial shown in FIG. 1, the plants were subject to severe drought, according to official weather service notices. In both cases, the growth of roots was much greater when produced from seeds treated with the chemical. […] When grown in the field, that is, in a setting where maximum root length was not impeded by the experiment itself, a similar or better result obtained. In FIG. 1B, roots were exposed in field grown plants with a back hoe trench and photographed. The images were adjusted so that the root volume in each is proportionally sized. In the control shown the root was 30 cm long, and with the treatment the root was 78 cm long to deepest part of the root visible.

[5] = moderate toxicity; cited from earlier work
corn [6] = assay: Corn seedling size after seed or urea fertilizer treatment with cyclodextrin/6PP; format: in vivo; conditions: cyclodextrin formulation; 0.2, 2 and 20 μl/seed or μl/g of urea fertilizer; plants about 15 days old; FIG. 4
Protocol: FIG. 4 illustrates corn seedling size following seed treatments at 0 (CO), 0.2, 2 and 20 μl/seed or of fertilizer with cyclodextrin/6PP at 0 (CO), 0.2, 2 and 20 μl/g of urea fertilizer. Plants were about 15 days old and bars with dissimilar letters denote statistical differences at P=0.01. The formulation systems designated here can be used with many other triggering compounds, signal molecules, or substances. In FIG. 4 is shown data on 6-pentyl pyrone (6PP) used with the same cyclodextrin formulation described above for use with 1-octen-3-ol. 6PP is effective in this use.

Row | SMILES | resistance to flooding stress (corn [1]) | roots exceeding the control (corn [2]) | squash yield (weights of fruit/ac) (squash) | biomass yield of corn versus untreated (corn [3]; FIG. 2A) | grain yield of corn versus untreated (corn [3]; FIG. 2B) | disease resistance (powdery mildew disease rating) (powdery mildew) | root length to deepest part of the root visible (corn [4]) [cm] | LD 50 [5] [mg/kg] | corn seedling size (corn [6])
1 | C=CC(O)CCCCC (stereo not drawn) [1-octen-3-ol] | resistance to early-season flooding stress | about 50% | systemically enhanced | significantly higher yields | significantly higher yields | systemically enhanced | 78 | 340 | 
2 | CCCCCc1cccc(=O)o1 [6PP, 6-pentyl pyrone] |  |  |  |  |  |  |  |  | effective
